Laboratory results reported in patent US12297194B2, “N2-phenylpyrimidine-2,4-diamine compounds, and preparation methods and methods of use thereof” (BRIDGE BIOTHERAPEUTICS, INC., priority 2021, dated 2025).

Tests used:
Format in all cases: cell-based, murine
Ba/F3 EGFR Wild-type = Ba/F3 EGFR Wild-type (Homo sapiens, UniProt P00533); assay: CellTiter-Glo cell viability, Ba/F3 EGFR wild-type cells; conditions: 72 hours, read-out: Ba/F3 EGFR mutant cell (IC50, nM) WT
Summary of the method: (§1)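 Ba/F3 cells expressing wild-type or mutant EGFR were seeded at 2500 cells/well, treated after 24 hours with compound at 0–2000 nM (ten points), and incubated 72 hours at 37° C. Viability was read as cellular ATP by CellTiter-Glo luminescence, and IC50 values were fitted from the dose-response.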

[1] = molecular target: Ba/F3 EGFR L858R/C797S mutants (Homo sapiens, UniProt P00533, C797S/L858R, cells depend on it); assay: CellTiter-Glo cell viability, Ba/F3 EGFR L858R/C797S cells; conditions: 72 hours, read-out: Ba/F3 EGFR mutant cell (IC50, nM) L/C
Sequence of Ba/F3 EGFR L858R/C797S mutants (P00533 whole entry C797S/L858R): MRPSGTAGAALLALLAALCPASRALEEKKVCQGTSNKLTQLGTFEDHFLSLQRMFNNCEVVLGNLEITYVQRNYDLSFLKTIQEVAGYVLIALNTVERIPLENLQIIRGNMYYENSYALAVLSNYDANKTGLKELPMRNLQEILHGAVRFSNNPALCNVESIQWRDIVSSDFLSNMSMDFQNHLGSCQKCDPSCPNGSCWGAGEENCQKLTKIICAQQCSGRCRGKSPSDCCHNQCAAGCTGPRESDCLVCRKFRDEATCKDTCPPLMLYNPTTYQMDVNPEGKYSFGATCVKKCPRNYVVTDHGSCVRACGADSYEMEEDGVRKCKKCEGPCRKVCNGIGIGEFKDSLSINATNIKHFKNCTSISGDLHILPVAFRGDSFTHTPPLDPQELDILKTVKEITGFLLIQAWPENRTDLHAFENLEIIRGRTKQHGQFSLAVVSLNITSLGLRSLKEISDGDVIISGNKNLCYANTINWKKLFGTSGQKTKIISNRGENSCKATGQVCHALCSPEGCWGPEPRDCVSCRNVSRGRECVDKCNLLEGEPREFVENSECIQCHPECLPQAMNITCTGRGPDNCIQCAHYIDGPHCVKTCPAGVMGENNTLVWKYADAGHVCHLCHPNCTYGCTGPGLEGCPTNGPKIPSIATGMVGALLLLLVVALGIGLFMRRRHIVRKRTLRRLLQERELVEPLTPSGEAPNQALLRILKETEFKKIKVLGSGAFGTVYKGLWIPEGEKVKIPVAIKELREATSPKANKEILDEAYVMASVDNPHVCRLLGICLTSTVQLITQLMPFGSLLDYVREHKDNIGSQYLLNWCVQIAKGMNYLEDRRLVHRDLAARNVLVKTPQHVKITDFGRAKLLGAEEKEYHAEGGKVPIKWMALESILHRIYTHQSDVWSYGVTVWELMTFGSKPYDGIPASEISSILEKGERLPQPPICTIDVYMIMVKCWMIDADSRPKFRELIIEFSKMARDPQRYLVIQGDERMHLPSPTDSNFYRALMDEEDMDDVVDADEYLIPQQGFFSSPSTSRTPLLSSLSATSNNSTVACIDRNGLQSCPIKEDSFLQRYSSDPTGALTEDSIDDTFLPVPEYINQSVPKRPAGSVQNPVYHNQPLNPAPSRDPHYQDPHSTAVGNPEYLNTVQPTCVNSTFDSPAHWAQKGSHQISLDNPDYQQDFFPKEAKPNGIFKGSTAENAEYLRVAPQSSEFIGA
Summary of the method: as §1

[2] = molecular target: Ba/F3 EGFR L858R/T790M/C797S mutants (Homo sapiens, UniProt P00533, T790M/C797S/L858R, cells depend on it); assay: CellTiter-Glo cell viability, Ba/F3 EGFR L858R/T790M/C797S cells; conditions: 72 hours, read-out: Ba/F3 EGFR mutant cell (IC50, nM) L/T/C
Sequence of Ba/F3 EGFR L858R/T790M/C797S mutants (P00533 whole entry T790M/C797S/L858R): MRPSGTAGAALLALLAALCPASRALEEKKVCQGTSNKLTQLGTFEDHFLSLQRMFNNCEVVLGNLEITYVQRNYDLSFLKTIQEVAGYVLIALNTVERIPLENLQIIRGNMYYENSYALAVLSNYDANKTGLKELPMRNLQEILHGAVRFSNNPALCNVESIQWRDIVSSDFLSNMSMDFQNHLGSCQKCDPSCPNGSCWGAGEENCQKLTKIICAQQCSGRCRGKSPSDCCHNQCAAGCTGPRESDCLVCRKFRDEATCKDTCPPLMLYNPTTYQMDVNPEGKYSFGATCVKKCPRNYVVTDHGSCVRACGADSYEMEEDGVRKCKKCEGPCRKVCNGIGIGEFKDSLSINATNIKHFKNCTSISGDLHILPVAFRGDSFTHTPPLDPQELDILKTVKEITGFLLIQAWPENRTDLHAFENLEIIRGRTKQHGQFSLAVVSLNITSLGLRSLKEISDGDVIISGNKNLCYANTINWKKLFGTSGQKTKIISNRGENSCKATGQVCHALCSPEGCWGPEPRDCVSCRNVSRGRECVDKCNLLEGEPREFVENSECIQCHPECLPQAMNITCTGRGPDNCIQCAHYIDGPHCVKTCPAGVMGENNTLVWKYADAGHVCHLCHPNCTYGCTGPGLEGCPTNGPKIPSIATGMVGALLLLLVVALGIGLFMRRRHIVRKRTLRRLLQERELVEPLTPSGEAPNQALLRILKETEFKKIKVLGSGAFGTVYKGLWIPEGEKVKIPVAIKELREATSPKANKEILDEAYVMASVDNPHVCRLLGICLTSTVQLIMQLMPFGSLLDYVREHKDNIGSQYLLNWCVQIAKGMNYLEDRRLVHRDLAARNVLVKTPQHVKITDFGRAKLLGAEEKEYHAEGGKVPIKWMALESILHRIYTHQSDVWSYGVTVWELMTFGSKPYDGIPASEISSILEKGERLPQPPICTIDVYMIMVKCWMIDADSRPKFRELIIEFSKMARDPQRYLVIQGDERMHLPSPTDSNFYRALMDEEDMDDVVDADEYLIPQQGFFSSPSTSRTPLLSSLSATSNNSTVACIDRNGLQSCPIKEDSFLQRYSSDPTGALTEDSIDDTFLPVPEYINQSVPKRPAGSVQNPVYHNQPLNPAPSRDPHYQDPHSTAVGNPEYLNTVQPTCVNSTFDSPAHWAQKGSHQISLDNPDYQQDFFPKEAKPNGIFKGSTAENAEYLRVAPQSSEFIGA
Summary of the method: as §1

[3] = molecular target: Ba/F3 EGFR Del19/T790M mutants (Homo sapiens, UniProt P00533, T790M, cells depend on it, form not given); assay: CellTiter-Glo cell viability, Ba/F3 EGFR Del19/T790M cells; conditions: 72 hours, read-out: Ba/F3 EGFR mutant cell (IC50, nM) D/T
Sequence of Ba/F3 EGFR Del19/T790M mutants (P00533 with tags, fused parts or gaps DEL746-750/T790M, form open): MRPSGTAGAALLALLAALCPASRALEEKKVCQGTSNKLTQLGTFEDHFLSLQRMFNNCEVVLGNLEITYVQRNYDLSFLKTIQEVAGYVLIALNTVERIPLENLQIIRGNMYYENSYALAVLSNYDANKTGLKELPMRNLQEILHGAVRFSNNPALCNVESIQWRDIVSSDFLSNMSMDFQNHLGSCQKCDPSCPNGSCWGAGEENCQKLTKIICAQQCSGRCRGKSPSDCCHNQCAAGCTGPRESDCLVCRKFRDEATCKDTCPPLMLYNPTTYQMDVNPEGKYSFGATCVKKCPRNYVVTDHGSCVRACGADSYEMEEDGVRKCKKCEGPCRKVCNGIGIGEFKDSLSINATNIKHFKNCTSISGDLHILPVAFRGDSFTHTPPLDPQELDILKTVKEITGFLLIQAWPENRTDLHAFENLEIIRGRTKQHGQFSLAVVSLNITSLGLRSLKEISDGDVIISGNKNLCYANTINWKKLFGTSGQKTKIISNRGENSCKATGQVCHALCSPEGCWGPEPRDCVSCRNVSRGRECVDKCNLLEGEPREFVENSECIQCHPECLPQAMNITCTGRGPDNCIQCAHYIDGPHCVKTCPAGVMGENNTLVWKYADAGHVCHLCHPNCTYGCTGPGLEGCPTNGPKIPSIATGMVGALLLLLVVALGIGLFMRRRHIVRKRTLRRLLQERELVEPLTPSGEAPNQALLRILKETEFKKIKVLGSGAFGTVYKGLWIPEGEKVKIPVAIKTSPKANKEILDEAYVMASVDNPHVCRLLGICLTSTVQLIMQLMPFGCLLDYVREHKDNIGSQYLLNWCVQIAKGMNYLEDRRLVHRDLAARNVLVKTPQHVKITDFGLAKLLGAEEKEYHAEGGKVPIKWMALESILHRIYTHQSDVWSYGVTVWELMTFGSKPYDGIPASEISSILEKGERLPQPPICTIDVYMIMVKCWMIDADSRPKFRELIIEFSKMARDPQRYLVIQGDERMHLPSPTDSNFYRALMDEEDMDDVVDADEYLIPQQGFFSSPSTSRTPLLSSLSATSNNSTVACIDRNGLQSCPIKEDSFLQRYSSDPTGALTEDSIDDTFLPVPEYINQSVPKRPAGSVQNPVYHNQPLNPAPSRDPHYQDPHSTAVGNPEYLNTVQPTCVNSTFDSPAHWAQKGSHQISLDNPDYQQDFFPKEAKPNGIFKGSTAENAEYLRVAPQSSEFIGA
Summary of the method: as §1

[4] = molecular target: Ba/F3 EGFR Del19/C797S mutants (Homo sapiens, UniProt P00533, C797S, cells depend on it, form not given); assay: CellTiter-Glo cell viability, Ba/F3 EGFR Del19/C797S cells; conditions: 72 hours, read-out: Ba/F3 EGFR mutant cell (IC50, nM) D/C
Sequence of Ba/F3 EGFR Del19/C797S mutants (P00533 with tags, fused parts or gaps DEL746-750/C797S, form open): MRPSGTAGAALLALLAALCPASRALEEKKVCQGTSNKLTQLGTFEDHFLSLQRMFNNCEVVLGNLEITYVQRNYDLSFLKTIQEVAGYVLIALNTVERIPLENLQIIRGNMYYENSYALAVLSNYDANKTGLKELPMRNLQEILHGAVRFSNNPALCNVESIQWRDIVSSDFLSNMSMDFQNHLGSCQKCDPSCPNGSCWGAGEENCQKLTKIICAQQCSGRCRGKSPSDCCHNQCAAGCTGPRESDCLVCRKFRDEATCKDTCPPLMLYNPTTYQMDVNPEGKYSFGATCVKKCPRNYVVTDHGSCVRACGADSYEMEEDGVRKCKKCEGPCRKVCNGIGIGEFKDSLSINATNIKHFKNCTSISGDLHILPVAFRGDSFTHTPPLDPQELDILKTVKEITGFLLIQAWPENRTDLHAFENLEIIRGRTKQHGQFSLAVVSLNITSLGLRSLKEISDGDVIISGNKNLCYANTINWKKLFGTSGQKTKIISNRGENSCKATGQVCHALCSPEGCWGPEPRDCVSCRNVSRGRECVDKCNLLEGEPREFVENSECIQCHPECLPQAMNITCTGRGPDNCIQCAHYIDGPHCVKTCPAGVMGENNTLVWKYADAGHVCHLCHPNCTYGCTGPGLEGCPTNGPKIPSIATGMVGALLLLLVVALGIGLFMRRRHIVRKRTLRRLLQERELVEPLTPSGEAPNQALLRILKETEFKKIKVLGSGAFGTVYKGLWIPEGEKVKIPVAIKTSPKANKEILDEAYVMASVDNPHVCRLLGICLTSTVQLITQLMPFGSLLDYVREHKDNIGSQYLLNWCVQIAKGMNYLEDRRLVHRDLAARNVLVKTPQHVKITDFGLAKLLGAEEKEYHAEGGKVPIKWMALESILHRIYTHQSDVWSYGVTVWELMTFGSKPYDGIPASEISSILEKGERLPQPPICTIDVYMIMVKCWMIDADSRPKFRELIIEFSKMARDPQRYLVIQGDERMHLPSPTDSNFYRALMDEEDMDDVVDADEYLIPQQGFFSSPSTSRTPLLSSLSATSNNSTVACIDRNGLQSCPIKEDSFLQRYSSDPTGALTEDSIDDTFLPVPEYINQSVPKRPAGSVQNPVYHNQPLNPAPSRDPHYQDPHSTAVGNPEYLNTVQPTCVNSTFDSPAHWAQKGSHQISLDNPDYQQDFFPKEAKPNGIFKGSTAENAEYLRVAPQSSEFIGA
Summary of the method: as §1

[5] = molecular target: Ba/F3 EGFR Del19/T790M/C797S mutants (Homo sapiens, UniProt P00533, T790M/C797S, cells depend on it, form not given); assay: CellTiter-Glo cell viability, Ba/F3 EGFR Del19/T790M/C797S cells; conditions: 72 hours, read-out: Ba/F3 EGFR mutant cell (IC50, nM) D/T/C
Summary of the method: as §1

| SMILES | GI50 (Ba/F3 EGFR Wild-type) [nM] | GI50 [1] [nM] | GI50 [2] [nM] | GI50 [3] [nM] | GI50 [4] [nM] | GI50 [5] [nM] |
| --- | --- | --- | --- | --- | --- | --- |
| CCS(=O)(=O)Nc1c(Nc2nc(Nc3cc(C)c(N4CCC(N5CCN(C)CC5)CC4)cc3OC)ncc2Br)ccc2nccnc12 [Example A24, N-(6-((5-bromo-2-((2-methoxy-5-methyl-4-(4-(4-methylpiperazin-1-yl)piperidin-1-yl)phenyl)amino)pyrimidin-4-yl)amino)quinoxalin-5-yl)ethanesulfonamide] | 397 | 114 | 13 | 10 | 49 | 74 |
| CCc1cc(Nc2ncc(Br)c(Nc3ccc4nccnc4c3N(C)S(C)(=O)=O)n2)c(OC)cc1N1CCC(N2CCOCC2)CC1 [Example A39, N-(6-((5-bromo-2-((5-ethyl-2-methoxy-4-(4-morpholinopiperidin-1-yl)phenyl)amino)pyrimidin-4-yl)amino)quinoxalin-5-yl)-N-methylmethanesulfonamide] | 779 | 61 | 35 | 4 | 8 | 8 |
| CCc1cc(Nc2ncc(Br)c(Nc3ccc4nccnc4c3N(C)S(C)(=O)=O)n2)c(OC)cc1N1CCC(N2CCCCC2)CC1 [Example A44, N-(6-((2-((4-([1,4′-bipiperidin]-1′-yl)-5-ethyl-2-methoxyphenyl)amino)-5-bromopyrimidin-4-yl)amino)quinoxalin-5-yl)-N-methylmethanesulfonamide] | > 2000 | 94 | 38 | 12 | 6 | 10 |
| COc1cc(N2CCC(N(C)C)CC2)c(C)cc1Nc1ncc(Br)c(Nc2cccc(OC)c2NS(C)(=O)=O)n1 [Example C3, N-(2-((5-bromo-2-((4-(4-(dimethylamino)piperidin-1-yl)-2-methoxy-5-methylphenyl)amino)pyrimidin-4-yl)amino)-6-methoxyphenyl)methanesulfonamide] | 288 | 113 | 23 | 17 | 60 | 92 |
| CCCc1cc(Nc2ncc(Cl)c(Nc3cccc(OC)c3NS(C)(=O)=O)n2)c(OC)cc1N1CCC(N2CCOCC2)CC1 [Example C23, N-(2-((5-chloro-2-((2-methoxy-4-(4-morpholinopiperidin-1-yl)-5-propylphenyl)amino)pyrimidin-4-yl)amino)-6-methoxyphenyl)methanesulfonamide] | 1680 | 72 | 137 | 30 | 14 | 10 |
| COc1cc(N2CCC(N3CCN(C)CC3)CC2)ccc1Nc1ncc(Cl)c(Nc2ccc3scnc3c2NS(C)(=O)=O)n1 [Example C8, N-(5-((5-chloro-2-((2-methoxy-4-(4-(4-methylpiperazin-1-yl)piperidin-1-yl)phenyl)amino)pyrimidin-4-yl)amino)benzo[d]thiazol-4-yl)methanesulfonamide] | 804 | 316 | 308 | 94 | 210 | 170 |
| COc1cc(N2CCC(N3CCN(C)CC3)CC2)c(C)cc1Nc1ncc(Br)c(Nc2cccc(OC)c2NS(C)(=O)=O)n1 [Example C1, N-(2-((5-bromo-2-((2-methoxy-5-methyl-4-(4-(4-methylpiperazin-1-yl)piperidin-1-yl)phenyl)amino)pyrimidin-4-yl)amino)-6-methoxyphenyl)methanesulfonamide] | 408 | 63 | 12 | 6 | 18 | 13 |
| COc1cc(N2CCC(N3CCN(C)CC3)CC2)c(F)cc1Nc1ncc(Br)c(Nc2ccc3nccnc3c2NS(C)(=O)=O)n1 [Example A27, N-(6-((5-bromo-2-((5-fluoro-2-methoxy-4-(4-(4-methylpiperazin-1-yl)piperidin-1-yl)phenyl)amino)pyrimidin-4-yl)amino)quinoxalin-5-yl)methanesulfonamide] | 183 | 184 | 65 | 27 | 101 | 192 |
| CCS(=O)(=O)Nc1c(Nc2nc(Nc3cc(C)c(N4CCC(N5CCN(C)CC5)CC4)cc3OC)ncc2Cl)cccc1OC [Example C16, N-(2-((5-chloro-2-((2-methoxy-5-methyl-4-(4-(4-methylpiperazin-1-yl)piperidin-1-yl)phenyl)amino)pyrimidin-4-yl)amino)-6-methoxyphenyl)ethanesulfonamide] | 486 | 51 | 34 | 6 | 9 | 10 |
| COc1cc(OC2CNC2)ccc1Nc1ncc(Cl)c(Nc2ccc3nccnc3c2NS(C)(=O)=O)n1 [Example D6, N-(6-((2-((4-(azetidin-3-yloxy)-2-methoxyphenyl)amino)-5-chloropyrimidin-4-yl)amino)quinoxalin-5-yl)methanesulfonamide] | > 2000 | 1130 | 1080 | 800 | 706 | 592 |
| CCc1cc(Nc2ncc(Br)c(N(C)c3ccc4nccnc4c3N(C)S(C)(=O)=O)n2)c(OC)cc1N1CCC(N(C)C)CC1 [Example B19, N-(6-((5-bromo-2-((4-(4-(dimethylamino)piperidin-1-yl)-5-ethyl-2-methoxyphenyl)amino)pyrimidin-4-yl)(methyl)amino)quinoxalin-5-yl)-N-methylmethane sulfonamide] | 1410 | 182 | 82 | 20 | 36 | 25 |
| COc1cc(N2CCC(N(C)C)CC2)c(C)cc1Nc1ncc(Br)c(Nc2ccc3nccnc3c2NS(C)(=O)=O)n1 [Example B1, N-(6-((5-bromo-2-((4-(4-(dimethylamino)piperidin-1-yl)-2-methoxy-5-methylphenyl)amino)pyrimidin-4-yl)amino)quinoxalin-5-yl)methanesulfonamide] | 302 | 64 | 28 | 8 | 38 | 7 |
| COc1cc(N2CCC(N3CCN(CC(F)F)CC3)CC2)ccc1Nc1ncc(Cl)c(Nc2ccc3nccnc3c2NS(C)(=O)=O)n1 [Example A37, N-(6-((5-chloro-2-((4-(4-(4-(2,2-difluoroethyl)piperazin-1-yl)piperidin-1-yl)-2-methoxyphenyl)amino)pyrimidin-4-yl)amino)quinoxalin-5-yl)methane sulfonamide] | 734 | 451 | 640 | 174 | 126 | 205 |
| CCc1cc(Nc2ncc(Cl)c(Nc3ccc4nccnc4c3NS(C)(=O)=O)n2)c(OC)cc1N1CCC(N2CCCC2)CC1 [Example A34, N-(6-((5-chloro-2-((5-ethyl-2-methoxy-4-(4-(pyrrolidin-1-yl)piperidin-1-yl)phenyl)amino)pyrimidin-4-yl)amino)quinoxalin-5-yl)methanesulfonamide] | > 2000 | 16 | 13 | 5 | 1 | 4 |
| COc1cc(N2CCNCC2)ccc1Nc1ncc(Cl)c(Nc2cccc(OC)c2NS(C)(=O)=O)n1 [Example C6, N-(2-((5-chloro-2-((2-methoxy-4-(piperazin-1-yl)phenyl)amino)pyrimidin-4-yl)amino)-6-methoxyphenyl)methanesulfonamide] | 626 | 305 | 596 | 268 | 106 | 222 |
| CCc1cc(Nc2ncc(Cl)c(Nc3ccc4c(c3NS(C)(=O)=O)OCCO4)n2)c(OC)cc1N1CCC(N2CCOCC2)CC1 [Example C15, N-(6-((5-chloro-2-((5-ethyl-2-methoxy-4-(4-morpholinopiperidin-1-yl)phenyl)amino)pyrimidin-4-yl)amino)-2,3-dihydrobenzo[b][1,4]dioxin-5-yl)methanesulfonamide] | 638 | 44 | 30 | 8 | 13 | 14 |
| COc1cc(N2CCNCC2)ccc1Nc1ncc(Cl)c(Nc2ccc3nccnc3c2NS(C)(=O)=O)n1 [Example B16, N-(6-((5-chloro-2-((2-methoxy-4-(piperazin-1-yl)phenyl)amino)pyrimidin-4-yl)amino)quinoxalin-5-yl)methanesulfonamide] | 1890 | 778 | 823 | 402 | 361 | 741 |
| COc1ccc(Nc2nc(Nc3cc(C)c(N4CCC(N5CCN(C)CC5)CC4)cc3OC)ncc2Cl)c(NS(C)(=O)=O)c1 [Example C26, N-(2-((5-chloro-2-((2-methoxy-5-methyl-4-(4-(4-methylpiperazin-1-yl)piperidin-1-yl)phenyl)amino)pyrimidin-4-yl)amino)-5-methoxyphenyl)methanesulfonamide] | 421 | 35 | 54 | 8 | 7 | 5 |
